Measurements as given in PubChem BioAssay AID1963425 (Molecular Pharmacology Branch, DTP, NCI, 2024).
pIC50: −log10 of the molar value.

Tested on: 323965-272-R-J2-PDC complex spheroid growth, % test/control
Test: Anticancer human tumor 323965-272-R-J2-PDC patient-derived pancreatic carcinoma cell line growth inhibition [Asc]
Conditions: for pIC50: curve of first compound; for viability, T/C: stronger effect = lower value
In short: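 Complex solid-tumor spheroids incorporating human endothelial and mesenchymal stem cells received single agents or combinations over half-log dilution ranges anchored to clinical Cmax.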
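Also: compound exposure lasted 7 days starting three days after spheroid seeding.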
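For viability, T/C in this document: 100% = DMSO vehicle control wells with viability set relative to vehicle.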

For `NC1CCC(NC2CC2c2ccccc2)CC1` (configuration not stated) + Cc1c(S(C)(=O)=O)c(-c2cc(F)cc(N3CCN(c4ccc(NS(=O)(=O)c5ccc(NC(CCN6CCC(C(=O)OCCCP(=O)(O)O)CC6)CSc6ccccc6)c(S(=O)(=O)C(F)(F)F)c5)cc4)CC3)c2)c(-c2ccc(Cl)cc2)n1C(C)C, the pIC50 (second compound 0.0316 µM) was < 7.00, the pIC50 (second compound 0.1 µM) was < 7.00 and the pIC50 (second compound 0.316 µM) was < 7.00. The pIC50 (second compound 1 µM) was < 7.00, the pIC50 (second compound 3.16 µM) was < 7.00 and the pIC50 (second compound 10 µM) was < 7.00. It also gave a viability, T/C (second compound 0.0316 µM, first compound 0.000316 µM) of 105%, a viability, T/C (second compound 0.0316 µM, first compound 0.001 µM) of 107% and a viability, T/C (second compound 0.0316 µM, first compound 0.00316 µM) of 107%. The viability, T/C (second compound 0.0316 µM, first compound 0.01 µM) was 109%, the viability, T/C (second compound 0.0316 µM, first compound 0.0316 µM) was 122% and the viability, T/C (second compound 0.0316 µM, first compound 0.1 µM) was 112%. The viability, T/C (second compound 0.1 µM, first compound 0.000316 µM) was 105%, the viability, T/C (second compound 0.1 µM, first compound 0.001 µM) was 99.2% and the viability, T/C (second compound 0.1 µM, first compound 0.00316 µM) was 120%. It also gave a viability, T/C (second compound 0.1 µM, first compound 0.01 µM) of 113%, a viability, T/C (second compound 0.1 µM, first compound 0.0316 µM) of 109% and a viability, T/C (second compound 0.1 µM, first compound 0.1 µM) of 99%. For the same compound, the viability, T/C (second compound 0.316 µM, first compound 0.000316 µM) was 108%, the viability, T/C (second compound 0.316 µM, first compound 0.001 µM) was 101% and the viability, T/C (second compound 0.316 µM, first compound 0.00316 µM) was 96.6%. For the same compound, the viability, T/C (second compound 0.316 µM, first compound 0.01 µM) was 103%, the viability, T/C (second compound 0.316 µM, first compound 0.0316 µM) was 104% and the viability, T/C (second compound 0.316 µM, first compound 0.1 µM) was 102%. For the same compound, the viability, T/C (second compound 1 µM, first compound 0.000316 µM) was 94.4%, the viability, T/C (second compound 1 µM, first compound 0.001 µM) was 100% and the viability, T/C (second compound 1 µM, first compound 0.00316 µM) was 93.9%. It also gave a viability, T/C (second compound 1 µM, first compound 0.01 µM) of 106%, a viability, T/C (second compound 1 µM, first compound 0.0316 µM) of 96.5% and a viability, T/C (second compound 1 µM, first compound 0.1 µM) of 92.2%. The viability, T/C (second compound 3.16 µM, first compound 0.000316 µM) was 84.5%, the viability, T/C (second compound 3.16 µM, first compound 0.001 µM) was 82.1% and the viability, T/C (second compound 3.16 µM, first compound 0.00316 µM) was 81.5%. The viability, T/C (second compound 3.16 µM, first compound 0.01 µM) was 76.5%, the viability, T/C (second compound 3.16 µM, first compound 0.0316 µM) was 90% and the viability, T/C (second compound 3.16 µM, first compound 0.1 µM) was 81.2%. The viability, T/C (second compound 10 µM, first compound 0.000316 µM) was 83%, the viability, T/C (second compound 10 µM, first compound 0.001 µM) was 70.1% and the viability, T/C (second compound 10 µM, first compound 0.00316 µM) was 66.5%. For the same compound, the viability, T/C (second compound 10 µM, first compound 0.01 µM) was 84%, the viability, T/C (second compound 10 µM, first compound 0.0316 µM) was 81.9% and the viability, T/C (second compound 10 µM, first compound 0.1 µM) was 73%.
